Reference: US8236947B2, “Quinoline derivatives and their use as 5-HT6 ligands” (Glaxo Group Limited, priority 2002, dated 2012)
Where a name gives a salt, the structure may show the parent alone.

Biological target: human cloned 5-HT6 receptors (Homo sapiens, UniProt P50406)
Assay: affinity for the 5-HT6 receptor (procedures outlined in WO98/27081)
Assay type: binding
Conditions: not given

Chain of human cloned 5-HT6 receptors (P50406 whole entry): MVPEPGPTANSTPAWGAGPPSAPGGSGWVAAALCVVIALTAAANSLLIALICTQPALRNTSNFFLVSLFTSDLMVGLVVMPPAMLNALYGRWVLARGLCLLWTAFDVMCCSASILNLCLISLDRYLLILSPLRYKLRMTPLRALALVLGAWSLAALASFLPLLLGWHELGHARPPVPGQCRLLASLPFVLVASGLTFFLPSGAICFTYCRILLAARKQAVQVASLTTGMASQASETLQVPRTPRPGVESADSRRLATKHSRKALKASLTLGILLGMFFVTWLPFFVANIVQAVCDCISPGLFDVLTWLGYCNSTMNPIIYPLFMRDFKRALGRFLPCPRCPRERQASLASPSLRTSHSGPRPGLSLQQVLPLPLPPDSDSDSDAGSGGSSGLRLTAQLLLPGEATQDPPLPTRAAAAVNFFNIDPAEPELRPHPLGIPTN

| Structure (SMILES) | Ki [nM] |
| --- | --- |
| O=S(=O)(c1ccccc1)c1cnc2c(N3CCNCC3)c(Cl)ccc2c1 [Example E10, 7-Chloro-3-phenylsulfonyl-8-piperazin-1-yl-quinoline hydrochloride] | < 10 |

Same assay, conditions: human cloned 5-HT6 receptors; read-out: pKi values at human cloned 5-HT6 receptors (converted)

| Structure (SMILES) | Ki [nM] |
| --- | --- |
| CN1CCN(c2cccc3cc(S(=O)(=O)c4ccccc4)cnc23)CC1 [Example E1, 8-(4-Methyl-piperazin-1-yl)-3-phenylsulfonylquinoline] | < 10 |
| O=S(=O)(c1cnc2c(N3CCNCC3)cccc2c1)c1ccccc1Cl [Example E3, 3-(2-Chloro)phenylsulfonyl-8-piperazin-1-yl-quinoline hydrochloride] | < 10 |
| O=S(=O)(c1cccc(Cl)c1)c1cnc2c(N3CCNCC3)cccc2c1 [Example E4, 3-(3-Chloro)phenylsulfonyl-8-piperazin-1-yl-quinoline hydrochloride] | < 10 |
| O=S(=O)(c1cnc2c(N3CCNCC3)cccc2c1)c1ccccc1F [Example E5, 3-(2-Fluoro)phenylsulfonyl-8-piperazin-1-yl-quinoline hydrochloride] | < 10 |
| O=S(=O)(c1ccc(Cl)cc1)c1cnc2c(N3CCNCC3)cccc2c1 [Example E6, 3-(4-Chloro)phenylsulfonyl-8-piperazin-1-yl-quinoline hydrochloride] | < 10 |
| O=S(=O)(c1cccc(F)c1)c1cnc2c(N3CCNCC3)cccc2c1 [Example E7, 3-(3-Fluoro)phenylsulfonyl-8-piperazin-1-yl-quinoline hydrochloride] | < 10 |
| O=S(=O)(c1cnc2c(N3CCNCC3)cccc2c1)c1ccc(Br)cc1OC(F)(F)F [Example E8, 3-(4-Bromo-2-trifluoromethoxy)phenylsulfonyl-8-piperazin-1-yl-quinoline hydrochloride] | < 10 |
| O=S(=O)(c1cccc(C(F)(F)F)c1)c1cnc2c(N3CCNCC3)cccc2c1 [Example E9, 8-Piperazin-1-yl-3-(3-trifluoromethyl)phenylsulfonylquinoline hydrochloride] | < 10 |
| Cc1cc(N2CCNCC2)c2ncc(S(=O)(=O)c3ccccc3)cc2c1 [Example E11, 6-Methyl-3-phenylsulfonyl-8-piperazin-1-yl-quinoline hydrochloride] | < 10 |
| C[C@@H]1CN(c2cccc3cc(S(=O)(=O)c4ccccc4)cnc23)CCN1 [Example E12, (R)-8-(3-Methyl)piperazin-1-yl-3-phenylsulfonylquinoline hydrochloride] | < 10 |
| C[C@H]1CN(c2cccc3cc(S(=O)(=O)c4ccccc4)cnc23)CCN1 [Example E13, (S)-8-(3-Methyl)piperazin-1-yl-3-phenylsulfonylquinoline hydrochloride] | < 10 |
| O=S(=O)(c1ccccc1)c1cnc2c(N3CCCNCC3)cccc2c1 [Example E14, 8-Homopiperazin-1-yl-3-phenylsulfonylquinoline hydrochloride] | < 10 |
| CCN1CCN(c2cccc3cc(S(=O)(=O)c4ccccc4)cnc23)CC1 [Example E17, 8-(4-Ethyl-piperazin-1-yl)-3-phenylsulfonylquinoline hydrochloride] | < 10 |
| O=S(=O)(c1ccccc1)c1cnc2c(N3CCN4CCCC4C3)cccc2c1 (centres unmarked) [Example E37] | < 10 |
| O=S(=O)(c1ccccc1)c1cnc2c(N3C[C@@H]4C[C@H]3CN4)cccc2c1 [Example E43, 3-Phenylsulfonyl 8-({1S, 4S}2,5-diazabicyclo[2.2.1]heptan-2-yl) quinoline hydrochloride] | < 10 |

Tested on: not given
Assay: not given
Conditions: not given

| Structure (SMILES) | melting point |
| --- | --- |
| C[C@H]1CN(c2cccc3cc(S(=O)(=O)c4ccccc4)cnc23)CCN1 (as salt: hydrochloride) [Example E13, (S)-8-(3-Methyl)piperazin-1-yl-3-phenylsulfonylquinoline hydrochloride] | 266 to 269 °C (dec.) |
